Values joined by “and” are separate entries in the source; they are usually repeats but may differ in a detail not shown here. Equal entries are not always repeated.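 Compound exposure: 48 hours, 5 concentrations, 96-well plates. Here, GI50 denotes the concentration required for 50% inhibition of growth. Definition used: TGI = concentration required for complete inhibition of growth.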
Experiments:
Assay in all cases: inhibition of tumour cell growth, NCI panel, 48 h
[1] = test system: CCRF-CEM leukemia
[2] = test system: HCT-15 colon
[3] = test system: OVCAR-4 ovarian
[4] = test system: OVCAR-8 ovarian
[5] = test system: SF-539 CNS
[6] = test system: SK-MEL-5 melanoma
[7] = test system: SK-OV-3 ovarian
[8] = test system: SNB-75 CNS
[9] = test system: SW-620 colon
[10] = test system: UACC-62 melanoma

Compound	TGI [1]	TGI [2]	TGI [3]	TGI [4]	TGI [5]	TGI [6]	TGI [7]	TGI [8]	TGI [9]	TGI [10]	GI50 [1]	GI50 [2]	GI50 [3]	GI50 [4]	GI50 [5]	GI50 [6]	GI50 [7]	GI50 [8]	GI50 [9]	GI50 [10]
COC1=C(C(=O)OC(C)(C)C)C23CCCCC2(C(C(=O)OC(C)(C)C)=C(OC)C3C(=O)OC(C)(C)C)C1C(=O)OC(C)(C)C (stereo unspecified)	> 100 µM	> 100 µM	> 100 µM	> 100 µM	> 100 µM	36 µM	> 100 µM	> 100 µM	> 100 µM	> 100 µM	–	–	–	–	–	–	–	–	–	–
COC(=O)CC[C@@H](NC(=O)C(C)NC(=O)COC1C(O)C(COC(=O)CCCCCCCCCCNC(=O)c2ccc([N+](=O)[O-])c3[nH]c4cc(Br)ccc4c(=O)c23)OC(OCc2ccccc2)C1NC(C)=O)C(N)=O (stereo partly specified)	> 100 µM	> 100 µM	> 100 µM	> 100 µM	> 100 µM	> 100 µM	> 100 µM	> 100 µM	> 100 µM	> 100 µM	–	–	–	–	–	–	–	–	–	–
Oc1ccc(Br)cc1CN1CCN(Cc2ccc(Cl)cc2)CC1	> 100 µM	51.3 µM	86.3 µM	> 100 µM	> 100 µM	26.4 µM	> 100 µM	> 100 µM	92.5 µM	> 100 µM	24.3 µM	16.1 µM	11.8 µM	24.8 µM	32 µM	13 µM	31 µM	27.6 µM	22.2 µM	17.6 µM
COc1ccc(CNCCN2C(=O)c3ccc4c5c(ccc(c35)C2=O)C(=O)N(CCNCc2ccc(OC)cc2)C4=O)cc1	3.29 µM	0.432 µM	0.255 µM	0.611 µM	0.872 µM	0.285 µM	2.37 µM	2.48 µM	0.506 µM	1.5 µM	0.227 µM	0.179 µM	0.122 µM	0.178 µM	0.274 µM	0.15 µM	1.13 µM	1.15 µM	0.168 µM	0.392 µM
CN1CCN(c2nc(C3=C(c4c[nH]c5ccccc45)C(=O)NC3=O)c3ccccc3n2)CC1	65 µM and 62.8 µM	60.2 µM and > 100 µM	65 µM and 69.1 µM	65 µM and 57.5 µM	19.7 µM and 32.9 µM	20.3 µM and 26 µM	65 µM and 45.9 µM	17.5 µM and 21.6 µM	65 µM and 35.9 µM	35.2 µM and 30.7 µM	28.9 µM and 14 µM	12.9 µM and 19.5 µM	18.9 µM and 16.2 µM	17.2 µM and 18.4 µM	10.5 µM and 16.8 µM	11.2 µM and 12.6 µM	19.5 µM and 16.2 µM	4.91 µM and 5.65 µM	19.8 µM and 19.1 µM	14.4 µM and 16.2 µM
O=C(Nc1ccc(Cl)cc1Cl)c1c/c(=N\O)c2ccc(O)cc2o1	> 100 µM	> 100 µM	> 100 µM	> 100 µM	> 100 µM	> 100 µM	> 100 µM	> 100 µM	> 100 µM	> 100 µM	–	–	–	–	–	–	–	–	–	–
CC1=NN(C(=O)CC(=O)Nc2ccccc2)C(=O)C1N=Nc1ccc(S(N)(=O)=O)cc1 (stereo unspecified)	> 100 µM	> 100 µM	> 100 µM	> 100 µM	> 100 µM	> 100 µM	> 100 µM	> 100 µM	> 100 µM	92.6 µM	–	–	–	–	–	–	–	–	–	–
COc1ccc(-n2cc(-c3ccc(Cl)cc3)[nH]c2=S)cc1Cl	> 100 µM	> 100 µM	48.6 µM	> 100 µM	44.3 µM	> 100 µM	52.6 µM	46.7 µM	> 100 µM	> 100 µM	60.6 µM	> 100 µM	20.7 µM	37.4 µM	19.9 µM	42.1 µM	23.6 µM	21.6 µM	> 100 µM	83.5 µM
OCCOCn1nc(-c2ccccc2)nc1-c1cnccn1	> 100 µM	> 100 µM	> 100 µM	> 100 µM	> 100 µM	> 100 µM	> 100 µM	> 100 µM	> 100 µM	> 100 µM	–	–	–	–	–	–	–	–	–	–
COc1cc(C2C3=C(COC3=O)N(CCO)c3cc4c(cc32)OCCO4)cc(OC)c1O (stereo unspecified)	> 50 µM	> 50 µM	> 50 µM	> 50 µM	> 14.8 µM	> 20.5 µM	> 50 µM	> 50 µM	> 50 µM	> 50 µM	1.84 µM	11.7 µM	3.78 µM	2.76 µM	1.22 µM	1.29 µM	2.29 µM	0.713 µM	1.83 µM	0.961 µM
CC([C@H]1CCC2C3CCC4C(=O)C(NC=O)=CC[C@]4(C)C3CC[C@@]21C)N(C)C (stereo partly specified)	18.7 µM	4.26 µM	26.6 µM	40.9 µM	3.14 µM	3.04 µM	12.9 µM	15.5 µM	5.54 µM	3.98 µM	3.24 µM	1.42 µM	5.12 µM	6.16 µM	1.58 µM	1.54 µM	4.03 µM	3.66 µM	2.13 µM	1.94 µM
CCC(C)CNC1=C(NC(C)=O)C(=O)c2ccccc2C1=O (stereo unspecified)	> 100 µM	> 100 µM	> 100 µM	> 100 µM	> 100 µM	> 100 µM	> 100 µM	> 100 µM	> 100 µM	> 100 µM	–	–	–	–	–	–	–	–	–	–
COc1ccc2c(c1)C(CCN)C(=O)N2 (stereo unspecified)	> 100 µM	> 100 µM	> 100 µM	> 100 µM	> 100 µM	> 100 µM	> 100 µM	> 100 µM	> 100 µM	> 100 µM	–	–	–	–	–	–	–	–	–	–
O=C(O)CSc1ccn(Cc2ccccc2)c1	> 100 µM	> 100 µM	> 100 µM	> 100 µM	> 100 µM	> 100 µM	> 100 µM	> 100 µM	> 100 µM	> 100 µM	–	–	–	–	–	–	–	–	–	–
Nc1ccc(Cl)cc1.Nc1ccc(Cl)cc1.Nc1ccc(Cl)cc1.O=C([O-])C(=O)[O-].O=C([O-])C(=O)[O-].[H+].[Ru+5]	> 68 µM	> 100 µM	> 100 µM	> 100 µM	> 100 µM	> 100 µM	> 100 µM	> 100 µM	> 100 µM	–	0.176 µM	–	> 100 µM	–	0.352 µM	–	> 100 µM	> 78.6 µM	0.187 µM	< 0.0174 µM
